Measurements as given in US20120244094A1, “TETRAPEPTIDES FOR BRIGHTENING THE SKIN” (EVONIK GOLDSCHMIDT GMBH, priority 2009, published 2012).

Key:
[1] = system: evenness of the skin appearance of dark-skinned women (Fitzpatrick type VI-V); experiment: Improvement in the skin appearance in dark-skinned people, visual assessment of evenness by an expert; assay type: in vivo, human; details: 0.004% PKEK face cream twice daily, FIG. 5
Method: For the following study, dark-skinned women (Fitzpatrick type VI-V) were used. The Fitzpatrick scale serves to organize the different skin types:
In each case, 25 female subjects were given a face cream which comprised either the tetrapeptide PKEK or no active ingredient (vehicle). They had to apply this formulation twice daily over the entire face for a period of 12 weeks. Prior to the start of the study and also after 2, 4, 8 and 12 weeks, the evenness of the skin appearance was assessed visually by an expert.
A five-part scale was used for assessing the skin appearance:
5=no contrast, very even skin appearance 4=slight contrast, slightly irregular skin appearance 3=moderate contrast, irregular skin appearance 2=high contrast, highly irregular skin appearance 1=very high contrast, very highly irregular skin appearance

[2] = system: melanin concentration in the skin of the forearm; experiment: In vivo lightening (2-month study), melanin concentration measured with a Mexameter probe; set-up: species or system human; details: 0.005% PKEK formulation, 20 subjects, compared to vehicle, FIG. 1
Source text: 20 subjects wore a test formulation without peptide or with 0.005% PKEK over a period of 8 weeks on one forearm in each case. Prior to the start of the study, and also after 8 weeks, a Mexameter probe (Courage & Khazaka, Cologne) was used to measure the melanin concentration both on the inside and also on the outside of the forearm. The measurement of the melanin concentration in the skin is based on the principle of absorption/reflection. The Mexameter probe emits light of a specific wavelength which is in agreement with the absorption maxima of the melanin in the skin. The light reflected by the skin is measured and placed relative to the emitted amount of light. The resulting measurement values are given as index numbers. [table]

[3] = system: age spots on the face; experiment: Reduction of age spots on the face, half-side test, chromameter skin shade ITA°; assay type: in vivo, human; details: applied twice daily for six weeks, FIG. 4; for ΔΔITA after 6-week application of the test formulations (reduction of age spots): 40 women, PKEK 0.004%, sodium ascorbyl phosphate 1.5%
Method: In order to quantify such age spots, color measurements of the skin are carried out. For this purpose, chromameters are used. The chromameter measures the color values L*, a* and b*. These describe a three-dimensional color space, with the help of which every perceivable color can be described, cf. FIG. 2. The end points are black (L=0) and white (L=100). In order to be able to classify the skin shade, the parameters L* and b* are required. The skin shade ITA° is given in degrees and calculated using the following formula: ITA°=[arctan((L*−50)/b*)]*180/3.14159 By means of the following study, the aim is to investigate whether the tetrapeptide PKEK is able to visibly reduce age spots. The study was carried out as a half-side test. 40 women aged between 30 and 70 years were selected who had visible age spots on the face. They were each given 2 test formulations, one for the right half of the face and the other for the left half of the face. The test formulations had to be applied twice daily over a period of six weeks. [table] Prior to the start of the study and also after 6 weeks, the color of the skin directly on the age spot was measured as well as in the adjoining area. This was performed using a CR 400 chromameter from Minolta. The skin shade ITA° was calculated both for the age spot (ITA°A) and also the adjoining area (ITA°U) and the difference was calculated: ΔITA°=ITA°U−ITA°A The greater ΔITA°, the more visible the age spot.

Compound | improvement in the evenness of the skin appearance (five-part visual scale) ([1]; after 12 weeks, vehicle shows no further improvement) | improvement in the evenness of the skin appearance compared with the vehicle ([1]; within the first 8 weeks, over the course of the time) | improvement in the evenness of the skin appearance (five-part visual scale) ([1]; within the first 8 weeks) | difference in the melanin values after 8 weeks compared to the starting value (decrease in skin brownness) ([2]; inside of the forearm) | difference in the melanin values after 8 weeks compared to the starting value (decrease in skin brownness) ([2]; outside of the forearm) | ΔΔITA after 6-week application of the test formulations (reduction of age spots) [3] | reduction of age spots, PKEK compared with sodium ascorbyl phosphate ([3]; comparison of the single actives)
Pro Lys Glu Lys (PKEK) | significantly improves the skin appearance yet further | increasingly greater over the course of the time than with the vehicle | visibly improved | significantly greater decrease in skin brownness | significantly greater decrease in skin brownness | visible reduction of the age spots | greater reduction than sodium ascorbyl phosphate
O=C1O[C@H]([C@@H](O)CO)C([O-])=C1OP(=O)([O-])[O-].[Na+].[Na+].[Na+] [sodium ascorbyl phosphate, reference compound] | – | – | – | – | – | visible reduction of the age spots | –
